Assay results from PMC11345841, “Exploring 2-Sulfonylpyrimidine Warheads as Acrylamide Surrogates for Targeted Covalent Inhibition: A BTK Story” (Journal of Medicinal Chemistry, 2024).
Where two headings read alike, the source gives them in different places.

Experiments:
[1] = target: T1, ABL1(E255K)-phosphorylated (Homo sapiens, UniProt P00519, E255K); assay: KINOMEscan ScanTK; assay type: binding; settings: for difference in %Control from reference Ib at 1 µM: read-out: % difference (compound - Ib %Control)
T1 construct: purchased Eurofins DiscoverX KINOMEscan (scanTK)

EGFR(L861Q) = target: T2, EGFR(L861Q) (Homo sapiens, UniProt P00533, L861Q); assay: KINOMEscan ScanTK; assay type: binding
T2 construct: purchased Eurofins DiscoverX KINOMEscan (scanTK)
T2 sequence (P00533 25-1210 L861Q): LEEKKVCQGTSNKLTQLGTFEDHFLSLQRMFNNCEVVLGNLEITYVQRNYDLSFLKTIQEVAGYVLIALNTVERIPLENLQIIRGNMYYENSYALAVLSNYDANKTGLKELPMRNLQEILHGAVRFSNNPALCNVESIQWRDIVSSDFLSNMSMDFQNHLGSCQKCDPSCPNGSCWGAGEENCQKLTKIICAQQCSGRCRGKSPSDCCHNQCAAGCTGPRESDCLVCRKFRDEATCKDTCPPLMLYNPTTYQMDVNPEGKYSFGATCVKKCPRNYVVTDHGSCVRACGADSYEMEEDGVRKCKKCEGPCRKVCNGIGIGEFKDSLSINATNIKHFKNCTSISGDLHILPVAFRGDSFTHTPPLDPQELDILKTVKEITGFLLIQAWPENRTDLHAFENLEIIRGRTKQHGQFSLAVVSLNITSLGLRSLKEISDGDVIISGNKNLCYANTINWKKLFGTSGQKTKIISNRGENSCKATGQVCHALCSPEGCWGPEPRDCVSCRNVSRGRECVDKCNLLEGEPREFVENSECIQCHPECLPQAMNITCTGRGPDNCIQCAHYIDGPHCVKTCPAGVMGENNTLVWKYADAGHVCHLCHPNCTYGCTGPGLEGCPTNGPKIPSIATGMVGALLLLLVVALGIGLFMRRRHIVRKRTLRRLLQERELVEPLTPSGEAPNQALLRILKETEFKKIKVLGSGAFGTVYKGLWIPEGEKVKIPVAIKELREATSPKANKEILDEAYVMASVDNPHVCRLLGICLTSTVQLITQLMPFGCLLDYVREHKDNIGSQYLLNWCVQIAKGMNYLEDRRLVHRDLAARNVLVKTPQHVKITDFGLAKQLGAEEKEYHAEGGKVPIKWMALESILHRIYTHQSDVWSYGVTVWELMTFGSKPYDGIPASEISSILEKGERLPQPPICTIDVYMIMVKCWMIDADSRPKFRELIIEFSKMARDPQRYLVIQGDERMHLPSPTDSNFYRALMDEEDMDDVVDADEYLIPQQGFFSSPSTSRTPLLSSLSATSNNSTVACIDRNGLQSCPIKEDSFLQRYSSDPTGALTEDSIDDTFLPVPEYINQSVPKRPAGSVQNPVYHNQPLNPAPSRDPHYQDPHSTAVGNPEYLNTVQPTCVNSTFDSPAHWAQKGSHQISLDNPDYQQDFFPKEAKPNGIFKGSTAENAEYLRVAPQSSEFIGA

wild-type BTK = wild-type BTK (Homo sapiens, UniProt Q06187); assay: BTK in vitro activity assay (ADP-Glo, poly-Glu:Tyr phosphorylation, TCEP)
BTK, full length (2–659) = BTK, full length (2–659) (Homo sapiens, UniProt Q06187); assay: Kinact/Ki determination, PhosphoSens progress curve analysis; assay type: biochemical; settings: BTK
BTK, full length (2–659), sequence (Q06187 2-659): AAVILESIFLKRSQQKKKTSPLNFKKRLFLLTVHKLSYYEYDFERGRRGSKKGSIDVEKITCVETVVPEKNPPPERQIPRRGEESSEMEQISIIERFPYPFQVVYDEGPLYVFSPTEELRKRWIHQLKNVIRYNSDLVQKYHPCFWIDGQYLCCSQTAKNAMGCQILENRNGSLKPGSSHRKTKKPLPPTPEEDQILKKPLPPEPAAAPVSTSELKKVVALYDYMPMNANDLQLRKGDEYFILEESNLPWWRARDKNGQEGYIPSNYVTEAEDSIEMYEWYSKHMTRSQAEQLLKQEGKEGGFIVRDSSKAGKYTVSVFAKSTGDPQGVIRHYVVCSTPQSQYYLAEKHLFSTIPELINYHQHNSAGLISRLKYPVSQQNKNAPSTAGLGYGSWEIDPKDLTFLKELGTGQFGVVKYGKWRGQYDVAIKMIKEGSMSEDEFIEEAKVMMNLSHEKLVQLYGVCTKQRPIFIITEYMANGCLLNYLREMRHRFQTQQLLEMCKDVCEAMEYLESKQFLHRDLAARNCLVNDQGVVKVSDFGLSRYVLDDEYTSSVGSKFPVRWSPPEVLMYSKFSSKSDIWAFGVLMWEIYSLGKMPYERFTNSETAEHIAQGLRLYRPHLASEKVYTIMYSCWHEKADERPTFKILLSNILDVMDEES
Protocol: Nonlinear regression was performed using the Solver algorithm in Excel. […] Two-step Kinact/Ki fits were extracted from the progress curve analysis of all compounds against BTK, enabling independent Kinact and Ki determinations.

ERBB3 = target: T3, ERBB3 (Homo sapiens, UniProt P21860); assay: KINOMEscan ScanTK; assay type: binding; settings: ERBB3
T3 construct: purchased Eurofins DiscoverX KINOMEscan (scanTK)
T3 sequence (P21860 20-1342): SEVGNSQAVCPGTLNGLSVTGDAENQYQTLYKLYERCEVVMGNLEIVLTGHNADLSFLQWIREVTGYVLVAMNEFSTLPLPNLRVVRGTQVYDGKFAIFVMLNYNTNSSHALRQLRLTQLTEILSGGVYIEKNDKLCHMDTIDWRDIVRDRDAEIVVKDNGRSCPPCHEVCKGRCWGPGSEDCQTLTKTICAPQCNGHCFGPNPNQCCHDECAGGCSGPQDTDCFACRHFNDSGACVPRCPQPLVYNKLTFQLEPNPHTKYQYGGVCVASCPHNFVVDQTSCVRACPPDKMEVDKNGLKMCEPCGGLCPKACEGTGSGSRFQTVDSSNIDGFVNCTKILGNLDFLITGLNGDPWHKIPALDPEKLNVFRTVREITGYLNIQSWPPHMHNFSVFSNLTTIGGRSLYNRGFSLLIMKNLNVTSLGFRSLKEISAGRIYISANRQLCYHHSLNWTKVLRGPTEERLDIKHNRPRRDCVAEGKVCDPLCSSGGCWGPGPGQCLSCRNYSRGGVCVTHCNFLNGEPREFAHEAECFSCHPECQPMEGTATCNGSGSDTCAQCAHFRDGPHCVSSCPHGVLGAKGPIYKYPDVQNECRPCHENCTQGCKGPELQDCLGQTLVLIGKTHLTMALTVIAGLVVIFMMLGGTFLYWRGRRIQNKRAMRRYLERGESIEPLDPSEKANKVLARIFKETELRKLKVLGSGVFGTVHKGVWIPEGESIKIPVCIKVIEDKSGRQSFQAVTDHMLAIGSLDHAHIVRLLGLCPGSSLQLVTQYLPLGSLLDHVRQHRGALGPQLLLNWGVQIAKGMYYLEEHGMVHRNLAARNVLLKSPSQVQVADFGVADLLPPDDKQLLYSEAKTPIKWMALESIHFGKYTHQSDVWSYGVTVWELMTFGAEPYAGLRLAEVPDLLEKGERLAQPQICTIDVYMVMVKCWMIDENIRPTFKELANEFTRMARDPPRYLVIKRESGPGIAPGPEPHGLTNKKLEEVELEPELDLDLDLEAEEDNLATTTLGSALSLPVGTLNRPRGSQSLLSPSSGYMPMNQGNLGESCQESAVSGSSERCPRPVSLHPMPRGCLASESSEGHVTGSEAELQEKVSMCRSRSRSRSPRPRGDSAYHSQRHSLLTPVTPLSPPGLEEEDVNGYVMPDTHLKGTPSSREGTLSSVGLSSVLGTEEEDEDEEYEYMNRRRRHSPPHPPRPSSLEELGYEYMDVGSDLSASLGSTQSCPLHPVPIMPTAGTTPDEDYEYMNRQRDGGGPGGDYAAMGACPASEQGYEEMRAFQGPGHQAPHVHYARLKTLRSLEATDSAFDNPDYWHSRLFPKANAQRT

INSR = target: T4, INSR (Homo sapiens, UniProt P06213); assay: KINOMEscan ScanTK; assay type: binding
T4 construct: purchased Eurofins DiscoverX KINOMEscan (scanTK)

CSF1R-autoinhibited = target: T5, CSF1R-autoinhibited (Homo sapiens, UniProt P07333); assay: KINOMEscan ScanTK; assay type: binding
T5 construct: purchased Eurofins DiscoverX KINOMEscan (scanTK)
T5 sequence (P07333 539-972 limits assumed): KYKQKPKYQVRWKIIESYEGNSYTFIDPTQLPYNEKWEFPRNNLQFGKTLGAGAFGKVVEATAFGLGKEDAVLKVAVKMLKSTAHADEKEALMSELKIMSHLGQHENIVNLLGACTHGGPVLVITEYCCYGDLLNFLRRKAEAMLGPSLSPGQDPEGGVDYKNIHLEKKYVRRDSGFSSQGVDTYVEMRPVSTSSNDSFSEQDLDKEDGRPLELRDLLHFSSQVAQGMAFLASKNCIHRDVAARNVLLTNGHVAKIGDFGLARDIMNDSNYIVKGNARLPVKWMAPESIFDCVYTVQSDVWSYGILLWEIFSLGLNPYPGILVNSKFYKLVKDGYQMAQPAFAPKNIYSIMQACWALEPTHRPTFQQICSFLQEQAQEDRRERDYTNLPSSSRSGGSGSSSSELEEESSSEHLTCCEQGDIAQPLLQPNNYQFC

[2] = target: JAK3, catalytic domain (795–1124) (Homo sapiens, UniProt P52333); assay: PhosphoSens enzymatic IC50 (AssayQuant)
Source text: Biochemical enzymatic IC50 data were generated by AssayQuant Technologies (Marlborough, MA) using the PhosphoSens Platform. […] Reaction rate versus log [inhibitor concentration] data were fitted to the four-parameter logistic equation [drawing 1]

DDR1 = target: T6, DDR1 (Homo sapiens, UniProt Q08345); assay: KINOMEscan ScanTK; assay type: binding
T6 construct: purchased Eurofins DiscoverX KINOMEscan (scanTK)

TRKC = target: T7, TRKC (Homo sapiens, UniProt Q16288); assay: KINOMEscan ScanTK; assay type: binding; settings: TRKC
T7 construct: purchased Eurofins DiscoverX KINOMEscan (scanTK)
T7 sequence (Q16288 32-839): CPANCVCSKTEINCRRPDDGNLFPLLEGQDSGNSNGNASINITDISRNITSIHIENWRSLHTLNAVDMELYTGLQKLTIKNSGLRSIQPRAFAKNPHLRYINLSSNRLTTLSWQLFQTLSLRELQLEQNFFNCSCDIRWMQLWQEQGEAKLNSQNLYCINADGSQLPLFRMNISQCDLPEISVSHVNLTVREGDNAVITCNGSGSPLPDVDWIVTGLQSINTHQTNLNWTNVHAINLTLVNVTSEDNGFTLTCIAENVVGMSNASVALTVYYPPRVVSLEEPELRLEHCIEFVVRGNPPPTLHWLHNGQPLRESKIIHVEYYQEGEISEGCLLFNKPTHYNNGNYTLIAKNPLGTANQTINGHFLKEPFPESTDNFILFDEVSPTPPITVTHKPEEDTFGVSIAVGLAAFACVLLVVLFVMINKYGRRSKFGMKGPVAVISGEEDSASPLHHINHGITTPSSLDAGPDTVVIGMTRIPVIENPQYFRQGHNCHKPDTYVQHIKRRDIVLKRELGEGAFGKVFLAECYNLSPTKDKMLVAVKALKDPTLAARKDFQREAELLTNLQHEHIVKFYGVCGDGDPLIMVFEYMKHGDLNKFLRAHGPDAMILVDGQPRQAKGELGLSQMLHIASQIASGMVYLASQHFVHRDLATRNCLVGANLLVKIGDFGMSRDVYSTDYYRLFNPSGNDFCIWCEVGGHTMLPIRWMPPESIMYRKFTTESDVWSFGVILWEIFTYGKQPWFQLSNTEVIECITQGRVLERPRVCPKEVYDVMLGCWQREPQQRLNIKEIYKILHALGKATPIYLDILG

FGFR4 = target: T8, FGFR4 (Homo sapiens, UniProt P22455); assay: KINOMEscan ScanTK; assay type: binding
T8 construct: purchased Eurofins DiscoverX KINOMEscan (scanTK)

ABL2 = target: T9, ABL2 (Homo sapiens, UniProt P42684); assay: KINOMEscan ScanTK; assay type: binding
T9 construct: purchased Eurofins DiscoverX KINOMEscan (scanTK)

PYK2 = target: T10, PYK2 (Homo sapiens, UniProt Q14289); assay: KINOMEscan ScanTK; assay type: binding
T10 construct: purchased Eurofins DiscoverX KINOMEscan (scanTK)

FLT3(D835V) = target: T11, FLT3(D835V) (Homo sapiens, UniProt P36888, D835V); assay: KINOMEscan ScanTK; assay type: binding
T11 construct: purchased Eurofins DiscoverX KINOMEscan (scanTK)
T11 sequence (P36888 27-993 D835V): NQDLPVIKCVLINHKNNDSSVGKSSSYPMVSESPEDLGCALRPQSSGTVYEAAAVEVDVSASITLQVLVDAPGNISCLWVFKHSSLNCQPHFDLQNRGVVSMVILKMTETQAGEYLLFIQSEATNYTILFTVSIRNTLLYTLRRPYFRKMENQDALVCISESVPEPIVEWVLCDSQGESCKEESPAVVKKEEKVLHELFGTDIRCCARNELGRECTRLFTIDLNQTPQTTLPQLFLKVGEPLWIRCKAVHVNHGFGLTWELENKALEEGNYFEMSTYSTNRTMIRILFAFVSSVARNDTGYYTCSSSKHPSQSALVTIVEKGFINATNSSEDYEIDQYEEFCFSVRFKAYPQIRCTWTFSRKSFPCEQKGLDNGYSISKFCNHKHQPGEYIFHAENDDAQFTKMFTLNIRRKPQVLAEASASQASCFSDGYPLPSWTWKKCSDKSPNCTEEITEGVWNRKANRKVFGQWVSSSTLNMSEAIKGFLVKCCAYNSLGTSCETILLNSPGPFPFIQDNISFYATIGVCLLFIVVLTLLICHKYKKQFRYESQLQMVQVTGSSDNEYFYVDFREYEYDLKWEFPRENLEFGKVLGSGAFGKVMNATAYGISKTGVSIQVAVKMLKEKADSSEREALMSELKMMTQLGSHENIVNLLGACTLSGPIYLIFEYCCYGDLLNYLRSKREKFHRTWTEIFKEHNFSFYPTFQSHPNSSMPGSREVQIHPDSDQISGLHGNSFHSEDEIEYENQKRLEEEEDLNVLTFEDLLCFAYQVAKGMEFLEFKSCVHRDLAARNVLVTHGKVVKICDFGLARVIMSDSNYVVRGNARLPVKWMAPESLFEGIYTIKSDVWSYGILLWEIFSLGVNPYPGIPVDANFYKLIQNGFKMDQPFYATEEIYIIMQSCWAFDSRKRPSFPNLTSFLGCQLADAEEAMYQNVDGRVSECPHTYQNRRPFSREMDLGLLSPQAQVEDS

RET(M918T) = target: T12, RET(M918T) (Homo sapiens, UniProt P07949, M918T); assay: KINOMEscan ScanTK; assay type: binding
T12 construct: purchased Eurofins DiscoverX KINOMEscan (scanTK)
T12 sequence (P07949 29-1114 M918T): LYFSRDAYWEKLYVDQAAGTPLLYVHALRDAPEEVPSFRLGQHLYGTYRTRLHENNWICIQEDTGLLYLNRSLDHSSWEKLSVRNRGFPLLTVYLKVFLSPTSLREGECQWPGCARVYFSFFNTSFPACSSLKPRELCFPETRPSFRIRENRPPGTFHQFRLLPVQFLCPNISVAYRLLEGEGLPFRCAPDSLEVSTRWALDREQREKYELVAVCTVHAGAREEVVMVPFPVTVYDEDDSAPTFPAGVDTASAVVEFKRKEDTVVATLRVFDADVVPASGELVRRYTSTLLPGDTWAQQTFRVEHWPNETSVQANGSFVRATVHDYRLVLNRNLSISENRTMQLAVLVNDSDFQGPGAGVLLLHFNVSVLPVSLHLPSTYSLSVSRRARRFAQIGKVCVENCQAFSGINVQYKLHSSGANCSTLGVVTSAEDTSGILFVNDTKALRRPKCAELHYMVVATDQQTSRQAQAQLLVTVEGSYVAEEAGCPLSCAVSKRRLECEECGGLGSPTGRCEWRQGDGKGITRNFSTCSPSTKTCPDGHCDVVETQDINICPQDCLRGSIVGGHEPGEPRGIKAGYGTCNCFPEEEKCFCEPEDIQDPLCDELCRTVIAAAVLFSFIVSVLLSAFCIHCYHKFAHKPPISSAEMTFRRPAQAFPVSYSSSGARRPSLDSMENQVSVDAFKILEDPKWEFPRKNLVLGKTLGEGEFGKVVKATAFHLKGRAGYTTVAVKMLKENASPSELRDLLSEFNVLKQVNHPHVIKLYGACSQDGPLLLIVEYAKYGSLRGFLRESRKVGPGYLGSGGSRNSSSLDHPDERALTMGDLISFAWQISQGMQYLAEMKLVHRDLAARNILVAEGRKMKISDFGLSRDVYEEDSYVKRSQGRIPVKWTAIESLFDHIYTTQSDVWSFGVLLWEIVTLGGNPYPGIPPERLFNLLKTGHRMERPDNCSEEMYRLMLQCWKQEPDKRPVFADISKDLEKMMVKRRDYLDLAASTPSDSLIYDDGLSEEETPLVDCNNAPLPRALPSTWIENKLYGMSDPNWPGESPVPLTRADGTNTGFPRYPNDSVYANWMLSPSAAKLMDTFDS

| Compound | difference in %Control from reference Ib at 1 µM ([1]; @1000nM) [%] | remaining binding at 1 µM ([1]; @1000nM, read-out: %Control) [%] | remaining binding at 1 µM ([1]; read-out: %Control @1000nM) [%] | difference in % of control versus compound Ib at 1 µM (EGFR(L861Q); @1000nM) [%] | remaining binding at 1 µM (EGFR(L861Q); @1000nM, read-out: %Control) [%] | remaining binding at 1 µM (EGFR(L861Q); read-out: %Control @1000nM) [%] | % of control difference from compound Ib at 1 µM (ERBB3; @1000nM) [%] | remaining binding at 1 µM (ERBB3; @1000nM, read-out: %Control) [%] | remaining binding at 1 µM (ERBB3; read-out: %Control @1000nM) [%] | difference in %Control versus compound Ib at 1 µM (INSR; @1000nM) [%] | remaining binding at 1 µM (INSR; @1000nM, read-out: %Control) [%] | remaining binding at 1 µM (INSR; read-out: %Control @1000nM) [%] | difference in %Control versus compound Ib at 1 µM (CSF1R-autoinhibited; @1000nM) [%] | remaining binding at 1 µM (CSF1R-autoinhibited; @1000nM, read-out: %Control) [%] | remaining binding at 1 µM (CSF1R-autoinhibited; read-out: %Control @1000nM) [%] | difference in %Control from compound Ib at 1 µM (DDR1; @1000nM) [%] | remaining binding at 1 µM (DDR1; @1000nM, read-out: %Control) [%] | remaining binding at 1 µM (DDR1; read-out: %Control @1000nM) [%] | difference in %Control versus compound Ib at 1 µM (TRKC; @1000nM) [%] | remaining binding at 1 µM (TRKC; @1000nM, read-out: %Control) [%] | also measured |
| --- | --- | --- | --- | --- | --- | --- | --- | --- | --- | --- | --- | --- | --- | --- | --- | --- | --- | --- | --- | --- | --- |
| COC(=O)c1cnc(S(C)(=O)=O)nc1N1CCCC(n2nc(-c3ccc(Oc4ccccc4)cc3)c3c(N)ncnc32)C1 (centres unmarked) [Compound 8b, Methyl 4-(3-(4-Amino-3-(4-phenoxyphenyl)-1H-pyrazolo[3,4-d]pyrimidin-1-yl)piperidin-1-yl)-2-(methylsulfonyl)pyrimidine-5-carboxylate] | 17 | 81 | 81 | 56.2 | 57 | 57 | 2.3 | 2.3 | 2.3 | -5 | 95 | 95 | 7 | 84 | 84 | -18 | 60 | 60 | -17 | 78 | IC50 (wild-type BTK): 57 ± 1 nM; remaining activity at 0.1 µM (wild-type BTK; read-out: Remaining BTK activity (%)): 2 ± 1%; Ki (BTK, full length (2–659)): 24.2 ± 0.95 nM; kinact (BTK, full length (2–659)): 0.00792 ± 0.00019 s⁻¹; kinact/KI (BTK, full length (2–659); read-out: Kinact/Ki): 328000 M⁻¹ s⁻¹; IC50 [2]: > 1000 nM; remaining binding at 1 µM (TRKC; read-out: %Control @1000nM): 78%; difference in %Control from compound Ib at 1 µM (FGFR4; @1000nM): -4%; remaining binding at 1 µM (FGFR4; @1000nM, read-out: %Control): 92%; remaining binding at 1 µM (FGFR4; read-out: %Control @1000nM): 92%; difference in %Control from reference compound Ib at 1 µM (ABL2; @1000nM): 38%; remaining binding at 1 µM (ABL2; @1000nM, read-out: %Control): 79%; remaining binding at 1 µM (ABL2; read-out: %Control @1000nM): 79%; remaining binding at 1 µM (PYK2; @1000nM, read-out: %Control): 85%; remaining binding at 1 µM (PYK2; read-out: %Control @1000nM): 85%; difference in %Control versus compound Ib at 1 µM (FLT3(D835V); @1000nM): 38.1%; remaining binding at 1 µM (FLT3(D835V); @1000nM, read-out: %Control): 48%; remaining binding at 1 µM (FLT3(D835V); read-out: %Control @1000nM): 48%; remaining binding at 1 µM (RET(M918T); @1000nM, read-out: %Control): 49%; remaining binding at 1 µM (RET(M918T); read-out: %Control @1000nM): 49% |
| CCOC(=O)c1cnc(S(C)(=O)=O)nc1N1CCC[C@@H](n2nc(-c3ccc(Oc4ccccc4)cc3)c3c(N)ncnc32)C1 [Compound 8c, Ethyl (R)-4-(3-(4-Amino-3-(4-phenoxyphenyl)-1H-pyrazolo[3,4-d]pyrimidin-1-yl)piperidin-1-yl)-2-(methylsulfonyl)pyrimidine-5-carboxylate] | 17 | 81 | 81 | 81.2 | 82 | 82 | 39 | 39 | 39 | 0 | 100 | 100 | 20 | 97 | 97 | -14 | 64 | 64 | -18 | 77 | remaining binding at 1 µM (TRKC; read-out: %Control @1000nM): 77%; difference in %Control from compound Ib at 1 µM (FGFR4; @1000nM): -5%; remaining binding at 1 µM (FGFR4; @1000nM, read-out: %Control): 91%; remaining binding at 1 µM (FGFR4; read-out: %Control @1000nM): 91%; difference in %Control from reference compound Ib at 1 µM (ABL2; @1000nM): 57%; remaining binding at 1 µM (ABL2; @1000nM, read-out: %Control): 98%; remaining binding at 1 µM (ABL2; read-out: %Control @1000nM): 98%; remaining binding at 1 µM (PYK2; @1000nM, read-out: %Control): 81%; remaining binding at 1 µM (PYK2; read-out: %Control @1000nM): 81%; difference in %Control versus compound Ib at 1 µM (FLT3(D835V); @1000nM): 46.1%; remaining binding at 1 µM (FLT3(D835V); @1000nM, read-out: %Control): 56%; remaining binding at 1 µM (FLT3(D835V); read-out: %Control @1000nM): 56%; remaining binding at 1 µM (RET(M918T); @1000nM, read-out: %Control): 87%; remaining binding at 1 µM (RET(M918T); read-out: %Control @1000nM): 87% |
